Where two headings read alike, the source gives them in different places.
Columns and labels:
cannabinoid receptors = experiment: [3H]CP55,940 competition binding in rat brain cortex membrane homogenates; design: species or system Sprague-Dawley rat; conditions: for IC50: vs [3H]CP55,940, rat brain cortex membranes
Experimental: (§1) Sprague–Dawley rats (n = 5) were anesthetized and sacrificed by decapitation. Spleens and brains were then quickly removed by dissection at 4 °C, and in the case of the brain tissue, the cortex was dissected for the preparation of the membrane homogenates. For this procedure, spleen and cortex samples were homogenized using a Teflon-glass grinder (15 up-and-down strokes at 800 rpm) in 30 volumes of homogenization buffer (1 mM EGTA, 3 mM MgCl2, 50 mM Tris–HCl; pH 7.4) supplemented with […], at 4 °C. The obtained homogenates were centrifuged for 5 min at 1500 rpm. Pellets were removed, and supernatants were centrifuged again for 15 min at 14,000 rpm. For washing, the obtained pellets were resuspended in a buffer and centrifuged again, and the supernatant was removed. The resulting aliquots were stored at −80 °C until use.
(§2) To stop the reaction, an ice-cold wash buffer (50 mM Tris–HCl and 0.5% BSA, pH 7.4) was added. Then, the membranes were retained by vacuum filtration to a Whatman GF/C glass microfiber filter (Sigma-Aldrich, St. Louis, MO, USA) and the free radioligand was discarded. Filters with the bound radioligand were transferred to vials containing 5 mL of Ultima Gold cocktail (Revvity, Boston, MA, USA) and measured with a Packard Tri-Carb 2200CA liquid scintillation counter (Revvity, Boston, MA, USA).
Data from radioligand affinity assays were analyzed by using nonlinear regression. A comparison of fits was performed for every curve and the preferred model (one site vs two sites) was chosen in each case. Curves were fitted to the pooled data from multiple experiments. For the evaluation of data from autoradiographic assays, the Kruskal–Wallis test followed by Dunn’s post hoc tests for multiple comparisons was performed. For statistical significance, the threshold was set at p = 0.05. The number of replicates or animal sample number used in each case is stated in the figure legends. GraphPad Prism 9 (GraphPad Software) was employed for data analysis and presentation.

human CB2 receptor = target: T1, human CB2 receptor (Homo sapiens, UniProt P34972); experiment: [3H]CP55,940 inhibition curves in membranes from CHO cells overexpressing human CB2; type: binding
T1 construct: purchased Sigma-Aldrich; host or cells: CHO cells
Experimental: Membrane homogenates from CHO cells overexpressing human CB1 and CB2 receptors, as well as matched wild-type cells, were used to test newly synthesized compounds and were acquired from Sigma-Aldrich (St Louis, MO, USA).
as §2
A concentration of 0.02 mg/mL of commercial WT (as control) and CB1 and CB2 overexpressing CHO cells were used, and the same protocol described above was followed. Rat spleen homogenates were also used at a concentration of 0.1 mg/mL as a further characterization of binding to the CB2 receptor, given the high expression of this receptor in this tissue and the practical lack of CB1 in it.

CB2 receptor = target: T2, CB2 receptor (Rattus norvegicus, UniProt Q9QZN9); experiment: [3H]CP55,940 inhibition curves in rat spleen membrane homogenates (CB2-enriched); type: binding, Sprague-Dawley rat
T2 construct: from tissue; host or cells: Sprague-Dawley rat spleen
T2 sequence (Q9QZN9 1-360): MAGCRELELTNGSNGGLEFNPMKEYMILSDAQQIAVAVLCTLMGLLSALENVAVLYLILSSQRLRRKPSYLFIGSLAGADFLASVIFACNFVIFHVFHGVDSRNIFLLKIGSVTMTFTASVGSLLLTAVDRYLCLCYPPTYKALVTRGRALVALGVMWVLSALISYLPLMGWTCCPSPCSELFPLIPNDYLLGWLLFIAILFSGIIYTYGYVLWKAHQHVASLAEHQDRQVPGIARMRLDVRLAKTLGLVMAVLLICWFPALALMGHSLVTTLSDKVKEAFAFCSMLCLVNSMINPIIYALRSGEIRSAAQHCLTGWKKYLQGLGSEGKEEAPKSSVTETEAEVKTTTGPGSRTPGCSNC
Experimental: as §1
To stop the reaction, an ice-cold wash buffer (50 mM Tris–HCl and 0.5% BSA, pH 7.4) was added. Then, the membranes were retained by vacuum filtration to a Whatman GF/C glass microfiber filter (Sigma-Aldrich, St. Louis, MO, USA) and the free radioligand was discarded. Filters with the bound radioligand were transferred to vials containing 5 mL of Ultima Gold cocktail (Revvity, Boston, MA, USA) and measured with a Packard Tri-Carb 2200CA liquid scintillation counter (Revvity, Boston, MA, USA). […]

CB1 receptor [1] = target: T3, CB1 receptor (Mus musculus, UniProt P47746); experiment: [3H]CP55,940 receptor autoradiography in mouse brain slices; type: binding, Swiss mice; conditions: for [3H]CP55,940 binding: mouse, 3 nM [3H]CP55,940 in the presence of compound 10 µM
T3 construct: fresh frozen sections from brain samples from wild-type; from tissue; host or cells: Swiss mouse brain sections
Experimental: (§3) All brain sections were air-dried for 30 min and later immersed in Coplin jars for preincubation in a buffer containing 50 mM Tris–HCl and 1% of BSA (pH 7.4) for 30 min at room temperature. The objective of this preincubation was to remove endogenous ligands. […] Following incubation, tissue slices were washed with an ice-cold preincubation buffer, dipped in distilled water, and dried overnight. To generate autoradiograms, dry sections were placed in hermetically closed cassettes and exposed to β-radiation-sensitive films for 21 days at 4 °C. To calibrate the optical densities to fmol/mg tissue equivalent, [^3H]-microscales were exposed to the films. To quantify the calibrated films after scanning, Fiji software (Bethesda, […], USA) was used.

CB1 receptor [2] = target: CB1 receptor (Rattus norvegicus, UniProt P20272); experiment: [3H]CP55,940 receptor autoradiography in rat brain slices; type: binding, Sprague-Dawley rat; design: fresh frozen sections from brain samples from wild-type; from tissue; host or cells: Sprague-Dawley rat brain sections; conditions: for [3H]CP55,940 binding: rat, 3 nM [3H]CP55,940 in the presence of compound 10 µM
Experimental: as §3

[3] = nucleus basalis magnocellularis

T3 sequence (P47746 whole entry): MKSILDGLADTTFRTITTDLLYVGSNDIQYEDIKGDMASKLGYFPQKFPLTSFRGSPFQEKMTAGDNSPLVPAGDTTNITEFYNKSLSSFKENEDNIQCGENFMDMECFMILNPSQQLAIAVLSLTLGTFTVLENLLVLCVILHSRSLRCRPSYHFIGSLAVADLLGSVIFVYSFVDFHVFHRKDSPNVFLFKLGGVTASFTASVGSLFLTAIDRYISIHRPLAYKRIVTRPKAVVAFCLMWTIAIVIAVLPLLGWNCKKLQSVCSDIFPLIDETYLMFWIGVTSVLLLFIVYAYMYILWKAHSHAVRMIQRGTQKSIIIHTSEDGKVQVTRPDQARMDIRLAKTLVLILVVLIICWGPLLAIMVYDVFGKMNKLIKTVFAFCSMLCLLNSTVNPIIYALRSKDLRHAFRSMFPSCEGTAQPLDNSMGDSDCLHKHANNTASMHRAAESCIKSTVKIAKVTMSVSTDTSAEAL
Sequence of CB1 receptor (Rattus norvegicus, UniProt P20272) (P20272 whole entry): as the sequence (P47746 whole entry) above, with D95E counted along it
T1 sequence (P34972 whole entry): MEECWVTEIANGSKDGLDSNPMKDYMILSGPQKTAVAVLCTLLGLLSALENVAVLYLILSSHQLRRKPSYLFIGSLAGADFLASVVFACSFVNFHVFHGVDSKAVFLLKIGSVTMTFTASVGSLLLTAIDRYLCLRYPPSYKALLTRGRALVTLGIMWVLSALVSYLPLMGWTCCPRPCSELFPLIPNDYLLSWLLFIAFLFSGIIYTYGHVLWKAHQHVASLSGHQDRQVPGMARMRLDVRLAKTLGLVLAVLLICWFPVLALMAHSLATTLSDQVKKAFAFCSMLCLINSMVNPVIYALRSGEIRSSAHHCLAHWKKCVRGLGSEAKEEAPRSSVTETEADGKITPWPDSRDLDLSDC

Compound: CCOC(=O)/C=C1\C(=O)Nc2ccc(C)cc2-c2c1c1cc(OC)ccc1n2C(=O)OCC [UVI3502]
- IC50 (cannabinoid receptors; high-affinity site of two-site fit, read-out: IC50Hi): 0.026 nM
- IC50 (cannabinoid receptors; low-affinity site of two-site fit, read-out: IC50Lo): 772 ± 49.4 nM
- inhibition of [3H]CP55,940 binding corresponding to the high-affinity binding site (cannabinoid receptors; rat cortex membranes): approximately 18%
- inhibition of [3H]CP55,940 binding corresponding to the low-affinity binding site (cannabinoid receptors; rat cortex membranes): ~40%
- total inhibition of [3H]CP55,940 binding (cannabinoid receptors; rat cortex membranes): about 58%
- affinity for cannabinoid receptors (inhibition of [3H]CP55,940 binding) (cannabinoid receptors; rat cortex membranes, result in words): showed affinity for cannabinoid receptors
- IC50 (human CB2 receptor): 16.2 ± 0.131 µM
- maximum inhibition of [3H]CP55,940 binding (human CB2 receptor; CB2 overexpressing CHO membranes): approximately 83%
- IC50 (CB2 receptor): 10.23 ± 0.0178 µM
- maximum inhibition of [3H]CP55,940 binding (CB2 receptor; rat spleen membrane homogenates): ~61%
- inhibition of [3H]CP55,940 binding in brain areas (CB1 receptor [1]; mouse brain slices, 10 µM, result in words): partially inhibit
- [3H]CP55,940 binding (CB1 receptor [1]; amygdala): 154 ± 8 fmol/mg t.e.
- [3H]CP55,940 binding (CB1 receptor [1]; cerebellum (gray matter)): 409 ± 207 fmol/mg t.e.
- [3H]CP55,940 binding (CB1 receptor [1]; cortex): 118 ± 18 fmol/mg t.e.
- [3H]CP55,940 binding (CB1 receptor [1]; globus pallidus): 698 ± 16 fmol/mg t.e.
- [3H]CP55,940 binding (CB1 receptor [1]; hippocampus dorsal): 181 ± 9 fmol/mg t.e.
- [3H]CP55,940 binding (CB1 receptor [1]; [3]): 202 ± 19 fmol/mg t.e.
- [3H]CP55,940 binding (CB1 receptor [1]; striatum): 159 ± 11 fmol/mg t.e.
- [3H]CP55,940 binding (CB1 receptor [1]; substantia nigra): 1075 ± 22 fmol/mg t.e.
- inhibition of [3H]CP55,940 binding in brain areas (CB1 receptor [2]; rat brain slices, 10 µM, result in words): partially inhibit
- [3H]CP55,940 binding (CB1 receptor [2]; amygdala): 136 ± 52 fmol/mg t.e.
- [3H]CP55,940 binding (CB1 receptor [2]; cerebellum (gray matter)): 421 ± 126 fmol/mg t.e.
- [3H]CP55,940 binding (CB1 receptor [2]; cortex): 122 ± 25 fmol/mg t.e.
- [3H]CP55,940 binding (CB1 receptor [2]; globus pallidus): 572 ± 40 fmol/mg t.e.
- [3H]CP55,940 binding (CB1 receptor [2]; hippocampus dorsal): 184 ± 26 fmol/mg t.e.
- [3H]CP55,940 binding (CB1 receptor [2]; [3]): 147 ± 18 fmol/mg t.e.
- [3H]CP55,940 binding (CB1 receptor [2]; striatum): 291 ± 18 fmol/mg t.e.
- [3H]CP55,940 binding (CB1 receptor [2]; substantia nigra): 1364 ± 581 fmol/mg t.e.

Source: paper PMC12163822, “Synthesis and Pharmacological Characterization of a Novel Cannabinoid Receptor 1 Antagonist” (ACS Omega, 2025)
